Test results: US20250304587A1, “WEE1 INHIBITOR, PREPARATION THEREFOR AND USE THEREOF” (JIANGSU TASLY DIYI PHARMACEUTICAL CO., LTD., priority 2022, published 2025)
pIC50: −log10 of the molar value.

Columns and labels:
HT-29 cells = assay: Cell Titer-Glo anti-proliferation, HT-29 cells; type: cell-based, human; conditions: 3 days, read-out: Anti-proliferative activity HT-29 (IC50 class)
Procedure: (§1) A. Evaluation of the Anti-Proliferative Effect of Compounds on BxPC3, HT-29 and OVCAR-3 Cells by the Cell Titer-Glo Method
(§2) Compound solutions of different concentration gradients were prepared. […] The cell growth group without compound was used as a positive control (maximum signal control) and the medium was used as a negative control (minimum signal control), while ensuring that the final level of DMSO in each reaction well was 0.2%. After removing the medium from the 384-well plate, 25 μl of the configured compound at different concentrations was transferred into the well plate and the compound and cells were incubated in the cell incubator at 37° C. with 5% CO2 for 3 days.
(§3) The 384-well plates were removed from the cell incubator and allowed to equilibrate for 1 h to room temperature. 25 μl of Cell Titer-Glo assay was added to each well, lysed on a shaker for 2 min and then read out (Luminescence) using a BMG PHERAStar after 10 min incubation. Calculate the inhibition rate from the luminescence signal.
(§4) to calculate the rate of inhibition of the cells by different concentrations of the compounds. The IC50 of the compound on cell activity inhibition was calculated by fitting a log(inhibitor) vs. response-Variable slope model to GraphPad Prism 6. The fitted equation was: Y=Bottom+(Top-Bottom)/(1+10^((Log IC50−X)*HillSlope)), where Y represents the rate of inhibition and X represents the concentration of the known compound after Log.

hERG potassium channel = hERG potassium channel (Homo sapiens (Human), UniProt Q12809); assay: hERG potassium channel inhibition, patch clamp in CHO hERG cells
Procedure: The cell line used for the patch clamp assay was a 10th generation CHO cell overexpressing hERG potassium channel cDNA. CHO hERG cells were cultured in Petri dishes or flasks at 37° C. in a 5% CO2 incubator. Cells were dropped onto circular slides 24-48 hours prior to electrophysiological experiments and cultured in cell culture medium and used for experiments after the cells had been adhered.
Cell culture medium (purchased from Invitrogen) Composition: • Ham's F12 medium • 10% (v/v) heat inactivated FBS • 100 μg/ml Hygromycin B (thaumatin) • 100 μg/ml Geneticin (Genomycin, G418)
Compound powders are dissolved in the extracellular solution and are subjected to a routine 5 to 10 minute sonication and shaking to ensure complete dissolution of the compound.
The final concentrations of compounds used for electrophysiological assays were 5, 20 μM and the final concentration of DMSO was 0.1%.
Cell membrane currents were recorded using a HEKA EPC-10 USB patch-clamp amplifier (HEKA Elektronik, Germany). • 1) A coverslip with a large number of uniformly growing individual CHO hERG cells on its surface was taken. Place in a continuous recording cell on an inverted microscope, perfused with extracellular fluid (approximately 1 ml per minute) and recorded continuously, waiting for the current to stabilize. • 2) Record HERG channel currents for individual cells using standard whole cell recording mode. The membrane voltage is first clamped at −80 mV and the cell is given a +20 mV stimulus for 5 s to activate the hERG potassium channel, then repolarized to −50 mV for 5 s to generate an outward tail current, which is continuously perfused until the current is stable, at which point the peak tail current is the control current value. • 3) The extracellular solution containing the drug to be tested was then perfused and recorded until the inhibitory effect of the drug on the hERG current reached a steady state, at which point the peak tail current was the post-drug current value. • 4) The cells are again perfused with the extracellular solution until the hERG current returns to or approaches the level prior to the addition of the drug, then the perfusion can be continued to test other concentrations or drugs. One or more compound or drug concentrations may be tested on each cell. • 5) Cisapride (C4740-10 mg, Sigma) is used as a positive control in the experiment to ensure that the cells used respond properly.

OVCAR-3 cells = assay: Cell Titer-Glo anti-proliferation, OVCAR-3 cells; type: cell-based; conditions: 3 days, read-out: Anti-proliferative activity OVCAR-3 (IC50 class)
Procedure: as §1, §2, §3, §4

BxPC3 cells = assay: Cell Titer-Glo anti-proliferation, BxPC3 cells; type: cell-based, human; conditions: 3 days, read-out: Anti-proliferative activity BxPC3 (IC50 class)
Procedure: as §1, §2, §3, §4

Wee1 protein = Wee1 protein (Homo sapiens (Human), UniProt P30291); assay: TR-FRET binding of compound to Wee1 protein and Tracer 178; conditions: Tracer 178, read-out: IC50, inhibitory activity against Wee1 kinase
Procedure: First, solutions of the compounds in different concentration gradients were prepared. The compounds were dissolved in DMSO and the compounds were diluted 4 folds with a total of 10 dose points and 2 parallel replicates for each concentration.
The IC50 for inhibition of enzyme activity by the compounds was then calculated using GraphPad Prism 6 and fitted with a log (inhibitor) vs. response-Variable slope mode. The fitting equation was: Y=Bottom+(Top−Bottom)/(1+10^((Log IC50−X)*HillSlope)), where Y represents the percentage of residual enzyme activity known and X represents the known concentration of compound after the logarithm.

HUVEC cells = assay: Cell Titer-Glo anti-proliferation, normal cells HUVEC; type: cell-based
Procedure: as §2, §3, §4
(§5) B. Evaluation of the Anti-Proliferative Effect of Compounds by the Cell Titer-Glo Method on Normal Cells HUVEC and HK2.
(§6) The test method is the same as the anti-proliferative activity evaluation of tumor cells.

HK2 cells = assay: Cell Titer-Glo anti-proliferation, normal cells HK2; type: cell-based
Procedure: as §2, §3, §4, §5, §6

Caco-2 cells = assay: Membrane permeability in Caco-2 model; type: in vitro ADME
Procedure: Caco-2 cells were purchased from the American Model Tissue Cell Collection (Rockville, MD). The cell culture medium was modified Eagle's medium (MEM) containing 10% inactivated fetal bovine serum and 1% non-essential amino acids. […] The cells were incubated for 21-28 days after inoculation for transport experiments and the apparent permeability (Papp) of Lucifer Yellow was used to characterize and verify the compactness of the cell monolayer. […] After the incubation, dilute the samples on the apical side and basolateral side, and the concentrations of compounds on the apical and basolateral sides were detected by LC-MS/MS, and the concentrations of the compounds were quantified by standard curve.

Sequence of Wee1 protein (P30291 whole entry): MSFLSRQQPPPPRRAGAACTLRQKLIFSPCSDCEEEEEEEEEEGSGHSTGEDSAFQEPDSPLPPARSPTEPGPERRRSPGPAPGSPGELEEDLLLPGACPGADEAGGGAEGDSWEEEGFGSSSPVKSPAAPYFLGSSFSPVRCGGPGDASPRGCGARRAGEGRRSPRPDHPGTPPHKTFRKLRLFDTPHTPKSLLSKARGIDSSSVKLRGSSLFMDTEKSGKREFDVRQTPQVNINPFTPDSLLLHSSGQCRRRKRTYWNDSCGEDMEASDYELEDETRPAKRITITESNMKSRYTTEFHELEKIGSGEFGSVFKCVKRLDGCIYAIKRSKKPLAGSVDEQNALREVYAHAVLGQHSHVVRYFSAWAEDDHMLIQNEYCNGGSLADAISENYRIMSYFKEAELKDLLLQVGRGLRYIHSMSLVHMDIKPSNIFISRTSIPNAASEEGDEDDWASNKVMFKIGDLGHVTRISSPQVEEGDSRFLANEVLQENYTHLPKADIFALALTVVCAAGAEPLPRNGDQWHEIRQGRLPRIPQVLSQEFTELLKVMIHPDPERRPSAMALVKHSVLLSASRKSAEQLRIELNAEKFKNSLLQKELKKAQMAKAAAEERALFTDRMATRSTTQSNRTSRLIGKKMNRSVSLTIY
Sequence of hERG potassium channel (Q12809 whole entry): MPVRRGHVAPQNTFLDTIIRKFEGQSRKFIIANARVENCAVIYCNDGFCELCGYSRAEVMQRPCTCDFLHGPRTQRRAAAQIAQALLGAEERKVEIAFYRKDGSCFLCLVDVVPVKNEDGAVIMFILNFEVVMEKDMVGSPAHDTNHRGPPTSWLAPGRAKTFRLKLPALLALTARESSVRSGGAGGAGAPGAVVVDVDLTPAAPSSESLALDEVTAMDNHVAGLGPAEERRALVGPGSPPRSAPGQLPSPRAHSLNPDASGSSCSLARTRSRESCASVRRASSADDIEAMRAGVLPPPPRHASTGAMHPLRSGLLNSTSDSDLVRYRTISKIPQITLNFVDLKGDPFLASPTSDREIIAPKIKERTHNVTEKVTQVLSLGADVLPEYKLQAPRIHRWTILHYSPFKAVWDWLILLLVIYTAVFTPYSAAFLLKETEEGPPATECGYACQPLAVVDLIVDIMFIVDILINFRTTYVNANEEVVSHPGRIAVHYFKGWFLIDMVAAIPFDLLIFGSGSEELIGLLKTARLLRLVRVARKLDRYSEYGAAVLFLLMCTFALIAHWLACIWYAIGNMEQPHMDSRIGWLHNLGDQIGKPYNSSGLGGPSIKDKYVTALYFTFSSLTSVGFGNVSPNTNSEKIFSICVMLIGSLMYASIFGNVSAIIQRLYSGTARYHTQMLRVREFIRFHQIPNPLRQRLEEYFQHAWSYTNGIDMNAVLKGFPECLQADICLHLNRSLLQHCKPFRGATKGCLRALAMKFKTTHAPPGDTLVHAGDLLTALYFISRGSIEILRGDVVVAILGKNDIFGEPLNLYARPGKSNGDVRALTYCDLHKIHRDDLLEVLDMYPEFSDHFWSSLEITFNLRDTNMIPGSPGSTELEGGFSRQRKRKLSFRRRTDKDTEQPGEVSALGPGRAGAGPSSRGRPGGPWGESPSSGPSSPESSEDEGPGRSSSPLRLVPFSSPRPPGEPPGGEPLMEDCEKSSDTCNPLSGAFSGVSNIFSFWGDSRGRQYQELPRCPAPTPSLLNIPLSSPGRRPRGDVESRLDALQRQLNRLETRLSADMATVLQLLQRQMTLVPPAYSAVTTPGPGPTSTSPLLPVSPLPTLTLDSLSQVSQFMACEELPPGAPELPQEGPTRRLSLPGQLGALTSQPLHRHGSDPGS

SMILES	pIC50 (HT-29 cells)	hERG Inhibition (hERG potassium channel; test concentration 5 μM) [%]	hERG Inhibition (hERG potassium channel; test concentration 20 μM) [%]	pIC50 (OVCAR-3 cells)	pIC50 (BxPC3 cells)	pIC50 (Wee1 protein)	pIC50 (HUVEC cells)	pIC50 (HK2 cells)	Efflux Ration (Caco-2 cells; Caco2)	Papp A to B (Caco-2 cells; Caco2, 10 μM, 90 min)	Papp B to A (Caco-2 cells; Caco2, 10 μM, 90 min)
C=CCn1c(=O)c2cnc(Nc3ccc(N4CC5CC(C4)N5C)cc3)nc2n1-c1ccc2c(n1)C(C)(O)C1(CC2)CC1 (stereo not shown) [Compound 7]	6.00 to 7.00	88.02 ± 3.87	95.13 ± 1.06	6.00 to 7.00	6.00 to 7.00	≥ 8.30	–	–	–	–	–
C=CCn1c(=O)c2cnc(Nc3ccc(N4CCN(C)CC4)cc3)nc2n1-c1ccc2c3c(n(CC)c2n1)OCCC3 [Compound 17]	6.00 to 7.00	–	–	6.00 to 7.00	5.70 to 6.00	≥ 8.30	–	–	–	–	–
C=CCn1c(=O)c2cnc(Nc3ccc(N4CCN(C)CC4)cc3)nc2n1-c1ccc2c(n1)C(O)C1(CC2)CC1 (stereo not shown) [Compound 4]	6.00 to 7.00	–	–	5.70 to 6.00	5.70 to 6.00	≥ 8.30	–	–	–	–	–
C=CCn1c(=O)c2cnc(Nc3ccc(N4CCC5(CCN(C)CC5)CC4)cc3)nc2n1-c1ccc2c(n1)[C@H](O)C1(CC2)CC1 [Compound 38b]	6.00 to 7.00	–	–	6.00 to 7.00	6.00 to 7.00	8.00 to 8.30	–	–	–	–	–
C=CCn1c(=O)c2cnc(Nc3ccc(N4CCN(C(C)C)CC4)cc3)nc2n1-c1ccc2c(n1)[C@@H](O)C1(CC2)CC1 (single isomer, unassigned) [Compound 57b]	6.00 to 7.00	–	–	6.00 to 7.00	6.00 to 7.00	–	< 5.00	6.04	–	–	–
C=CCn1c(=O)c2cnc(Nc3ccc(N4CC5CC(C4)N5CC)cc3)nc2n1-c1ccc2c(n1)[C@](C)(O)C1(CC2)CC1 (single isomer, unassigned) [Compound 51a]	6.00 to 7.00	–	–	6.00 to 7.00	6.00 to 7.00	≥ 8.30	–	–	–	–	–
C=CCn1c(=O)c2cnc(Nc3ccc(N4CCC5(CCN(C)CC5)CC4)c(C)c3)nc2n1-c1ccc2c(n1)[C@H](O)C1(CC2)CC1 (single isomer, unassigned) [Compound 61b]	6.00 to 7.00	–	–	6.00 to 7.00	6.00 to 7.00	8.00 to 8.30	5.35	6.31	–	–	–
C=CCn1c(=O)c2cnc(Nc3ccc(N4CCN(C)[C@@H](C)C4)cc3)nc2n1-c1ccc2c(n1)[C@@H](O)C1(CC2)CC1 (single isomer, unassigned) [Compound 56b]	6.00 to 7.00	–	–	6.00 to 7.00	6.00 to 7.00	–	< 5.00	6.00	–	–	–
C=CCn1c(=O)c2cnc(Nc3ccc(N4CCC5(CCN(C)CC5)CC4)cc3)nc2n1-c1ccc2c(n1)[C@](C)(O)C1(CC2)CC1 (single isomer, unassigned) [Compound 44a]	–	–	–	–	–	≥ 8.30	5.99	6.44	–	–	–
C=CCn1c(=O)c2cnc(Nc3ccc(N4CCN(C)CC4)cc3)nc2n1-c1ccc2c(c1)N(CC)C(=O)C21CC1 [Compound 1]	5.70 to 6.00	–	–	–	5.00 to 5.30	7.00 to 8.00	–	–	–	–	–
C=CCn1c(=O)c2cnc(Nc3ccc(N4CCN(C)CC4)c(C)c3)nc2n1-c1ccc2c(n1)[C@@](C)(O)C1(CC2)CC1 (single isomer, unassigned) [Compound 23a]	6.00 to 7.00	–	–	6.00 to 7.00	6.00 to 7.00	≥ 8.30	–	–	–	–	–
C=CCn1c(=O)c2cnc(Nc3ccc(N4CCN(C)CC4)cc3)nc2n1-c1ccc2c(n1)C(C)(O)C1(CC1)C2 (single isomer, unassigned) [Compound 3b]	6.00 to 7.00	–	–	6.00 to 7.00	5.70 to 6.00	–	–	–	17.90	0.73 10^−6 cm/s	13.07 10^−6 cm/s
C=CCn1c(=O)c2cnc(Nc3ccc(N4CCN(C)CC4)cc3)nc2n1-c1ccc2c(n1)[C@@H](O)C1(CC2)CC1 (single isomer, unassigned) [Compound 4a]	5.70 to 6.00	–	–	5.30 to 5.70	5.30 to 5.70	≥ 8.30	–	–	–	–	–
